Values quoted from earlier work, collected in patent US20100311674A1, “PHARMACEUTICAL COMPOSITIONS WITH A MECHANISM OF MULTI-TARGET RECEPTOR RETROACTION FOR TREATING DEPRESSION” (Yu-Fen Chi, priority 2007, published 2010).

Key:
[1] = cited from earlier work
[2] = in the human body; cited from earlier work

SMILES	Anti-depression function (in words) ([1]; clinical trials)	Side effect (in words) ([1]; in vivo)	Conversion rate of glycyrrhizic acid to glycyrrhetinic acid [2] [%]
COc1ccc(C2CNC(=O)C2)cc1OC1CCCC1 (stereo not drawn) [Rolipram]	obvious anti-depression function	severe emesis	
CC1(C)[C@@H](O[C@H]2O[C@H](C(=O)O)[C@@H](O)[C@H](O)[C@H]2O[C@@H]2O[C@H](C(=O)O)[C@@H](O)[C@H](O)[C@H]2O)CC[C@]2(C)[C@H]3C(=O)C=C4[C@@H]5C[C@@](C)(C(=O)O)CC[C@]5(C)CC[C@@]4(C)[C@]3(C)CC[C@@H]12 [glycyrrhizic acid]			~100
